# Data reported in ChEMBL document CHEMBL4373747 (ACS Med Chem Lett, 2020).
# Legend:
# [1] = Cytotoxicity against human MRC9 cells assessed as reduction in cell viability incubated for 72 hrs by cell-titer blue assay; assay type: cell-based; details: MRC9, 72 h
# MOLM-13 = assay: Cytotoxicity against human MOLM13 cells assessed as reduction in cell viability incubated for 72 hrs by cell-titer blue assay; assay type: functional, cell-based; details: MOLM-13, 72 h
# [2] = molecular target: T1, Protein deacetylase HDAC6 (Homo sapiens, UniProt Q9UBN7); assay: Inhibition of recombinant full length human HDAC6 expressed in baculovirus infected Sf9 cells assessed as inhibitory constant using FAM-RHKK-Ac as substrate incubated for 5 hrs by electrophoretic mobility shift assay
# T1 sequence (Q9UBN7 whole entry): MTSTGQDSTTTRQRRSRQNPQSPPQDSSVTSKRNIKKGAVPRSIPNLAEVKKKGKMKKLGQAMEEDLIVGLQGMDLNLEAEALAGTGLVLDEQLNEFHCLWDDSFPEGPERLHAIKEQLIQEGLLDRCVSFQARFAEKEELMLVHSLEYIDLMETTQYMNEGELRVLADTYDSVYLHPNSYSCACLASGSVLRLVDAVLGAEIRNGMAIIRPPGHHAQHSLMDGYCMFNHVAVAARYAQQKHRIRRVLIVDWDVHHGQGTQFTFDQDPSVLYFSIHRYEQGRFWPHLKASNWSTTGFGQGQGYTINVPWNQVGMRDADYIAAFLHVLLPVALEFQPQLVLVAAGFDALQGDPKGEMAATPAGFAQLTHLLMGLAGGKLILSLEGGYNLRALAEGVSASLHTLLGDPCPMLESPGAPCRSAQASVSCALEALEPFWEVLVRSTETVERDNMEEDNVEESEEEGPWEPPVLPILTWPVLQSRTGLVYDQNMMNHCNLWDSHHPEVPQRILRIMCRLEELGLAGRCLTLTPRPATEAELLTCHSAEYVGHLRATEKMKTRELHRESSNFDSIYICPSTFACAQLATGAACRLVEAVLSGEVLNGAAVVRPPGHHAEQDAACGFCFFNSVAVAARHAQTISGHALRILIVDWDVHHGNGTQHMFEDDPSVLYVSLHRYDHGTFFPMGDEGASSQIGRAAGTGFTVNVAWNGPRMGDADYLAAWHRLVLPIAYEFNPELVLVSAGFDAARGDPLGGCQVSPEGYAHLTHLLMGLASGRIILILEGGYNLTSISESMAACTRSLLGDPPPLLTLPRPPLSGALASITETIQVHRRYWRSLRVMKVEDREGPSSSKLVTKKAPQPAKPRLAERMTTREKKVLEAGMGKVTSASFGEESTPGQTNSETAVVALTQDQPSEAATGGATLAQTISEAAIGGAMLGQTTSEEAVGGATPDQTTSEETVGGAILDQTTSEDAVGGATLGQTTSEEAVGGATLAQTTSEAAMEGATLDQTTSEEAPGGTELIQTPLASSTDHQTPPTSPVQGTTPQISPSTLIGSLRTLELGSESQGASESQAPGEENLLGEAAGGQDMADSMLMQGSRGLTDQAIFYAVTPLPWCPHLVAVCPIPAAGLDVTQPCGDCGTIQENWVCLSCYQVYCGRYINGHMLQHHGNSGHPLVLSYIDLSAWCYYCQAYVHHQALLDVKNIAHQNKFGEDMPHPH
# MDA-MB-231 = assay: Cytotoxicity against human MDA-MB-231 cells assessed as reduction in cell viability incubated for 72 hrs by cell-titer blue assay; assay type: functional, cell-based; details: MDA-MB-231, 72 h
# Histone deacetylase 3 = Histone deacetylase 3 (Homo sapiens, UniProt O15379); assay: Inhibition of recombinant full length human HDAC3 expressed in baculovirus infected Sf9 cells using FAM-RHKK-Ac as substrate incubated for 3 hrs by electrophoretic mobility shift assay
# Histone deacetylase 8 = molecular target: T2, Histone deacetylase 8 (Homo sapiens, UniProt Q9BY41); assay: Inhibition of recombinant full length human HDAC8 expressed in baculovirus infected Sf9 cells using FAM-RHKK-TFAc as substrate incubated for 3 hrs by electrophoretic mobility shift assay
# T2 sequence (Q9BY41 whole entry): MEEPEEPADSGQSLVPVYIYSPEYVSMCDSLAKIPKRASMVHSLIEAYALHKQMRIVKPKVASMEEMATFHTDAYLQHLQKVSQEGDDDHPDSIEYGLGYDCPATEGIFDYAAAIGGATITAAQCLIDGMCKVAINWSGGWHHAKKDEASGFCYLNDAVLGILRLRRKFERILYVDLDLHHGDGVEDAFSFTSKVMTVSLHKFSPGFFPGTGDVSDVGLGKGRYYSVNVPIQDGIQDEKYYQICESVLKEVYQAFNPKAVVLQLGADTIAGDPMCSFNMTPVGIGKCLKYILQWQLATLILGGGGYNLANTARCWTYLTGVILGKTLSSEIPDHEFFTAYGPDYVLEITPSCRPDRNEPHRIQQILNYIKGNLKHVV
# MV4-11 = assay: Cytotoxicity against human MV4-11 cells assessed as reduction in cell viability incubated for 72 hrs by cell-titer blue assay; assay type: functional, cell-based; details: MV4-11, 72 h
# [3] = molecular target: T1, Protein deacetylase HDAC6; assay: Inhibition of recombinant full length human HDAC6 expressed in baculovirus infected Sf9 cells using FAM-RHKK-Ac as substrate incubated for 5 hrs by electrophoretic mobility shift assay
# Histone deacetylase 11 = molecular target: T3, Histone deacetylase 11 (Homo sapiens, UniProt Q96DB2); assay: Inhibition of recombinant full length human HDAC11 expressed in baculovirus infected Sf9 cells using FAM-RHKK-TFAc as substrate incubated for 17 hrs by electrophoretic mobility shift assay
# T3 sequence (Q96DB2 whole entry): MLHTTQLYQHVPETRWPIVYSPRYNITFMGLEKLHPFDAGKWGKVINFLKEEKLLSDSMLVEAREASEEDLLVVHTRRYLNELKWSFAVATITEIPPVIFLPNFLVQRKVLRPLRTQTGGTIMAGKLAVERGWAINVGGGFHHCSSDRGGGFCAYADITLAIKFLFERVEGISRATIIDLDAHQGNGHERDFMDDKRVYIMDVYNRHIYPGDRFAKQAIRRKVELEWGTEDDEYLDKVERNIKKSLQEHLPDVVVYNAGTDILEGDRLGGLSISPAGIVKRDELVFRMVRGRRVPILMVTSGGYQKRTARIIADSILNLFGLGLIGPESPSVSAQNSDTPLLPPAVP
# MDA-MB-468 = assay: Cytotoxicity against human MDA-MB-468 cells assessed as reduction in cell viability incubated for 72 hrs by cell-titer blue assay; assay type: functional, cell-based; details: MDA-MB-468, 72 h
# [4] = molecular target: T4, Polyamine deacetylase HDAC10 (Homo sapiens, UniProt Q969S8); assay: Inhibition of recombinant full length human HDAC10 expressed in baculovirus infected Sf9 cells using FAM-RHKK-Ac as substrate incubated for 17 hrs by electrophoretic mobility shift assay
# T4 sequence (Q969S8 whole entry): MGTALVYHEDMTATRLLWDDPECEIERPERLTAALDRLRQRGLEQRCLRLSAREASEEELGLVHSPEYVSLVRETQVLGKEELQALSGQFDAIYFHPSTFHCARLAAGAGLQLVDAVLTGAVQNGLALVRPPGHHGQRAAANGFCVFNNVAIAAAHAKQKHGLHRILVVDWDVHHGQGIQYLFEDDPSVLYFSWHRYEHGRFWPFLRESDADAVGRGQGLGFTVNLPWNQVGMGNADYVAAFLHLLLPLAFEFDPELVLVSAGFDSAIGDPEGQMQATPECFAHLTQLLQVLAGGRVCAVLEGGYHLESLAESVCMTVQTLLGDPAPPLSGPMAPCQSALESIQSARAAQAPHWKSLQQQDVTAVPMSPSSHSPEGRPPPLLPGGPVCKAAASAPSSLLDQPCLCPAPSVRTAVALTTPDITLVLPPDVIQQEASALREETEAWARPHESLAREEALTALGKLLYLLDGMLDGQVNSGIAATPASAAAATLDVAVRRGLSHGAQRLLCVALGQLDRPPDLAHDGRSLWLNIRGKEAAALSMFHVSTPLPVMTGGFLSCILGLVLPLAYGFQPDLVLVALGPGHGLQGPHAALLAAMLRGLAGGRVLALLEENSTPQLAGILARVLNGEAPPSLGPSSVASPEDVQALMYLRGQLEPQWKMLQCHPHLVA
# Histone deacetylase 5 = Histone deacetylase 5 (Homo sapiens, UniProt Q9UQL6); assay: Inhibition of recombinant full length human HDAC5 expressed in baculovirus infected Sf9 cells using FAM-RHKK-TFAc as substrate incubated for 3 hrs by electrophoretic mobility shift assay
# Histone deacetylase 9 = Histone deacetylase 9 (Homo sapiens, UniProt Q9UKV0); assay: Inhibition of recombinant human HDAC9 (604-1066 residues) expressed in baculovirus infected Sf9 cells using FAM-RHKK-TFAc as substrate incubated for 3 hrs by electrophoretic mobility shift assay
# [5] = Intrinsic clearance in ICR/CD1 mouse hepatocytes at 1 uM measured upto 120 mins by LCMS analysis; assay type: ADME, cell-based, Hepatocyte; details: 2 h
# [6] = Apparent permeability from apical to basolateral side in human Caco2 cells incubated for 2 hrs by LC/MS analysis; assay type: ADME, cell-based, Caco-2; details: caco-2, 2 h
# [7] = Protein binding in CD-1 mouse plasma at 1 uM incubated for 6 hrs by LCMS analysis; assay type: ADME, cell-free; details: mouse, 6 h, 1 µM
# [8] = Efflux ratio of apparent permeability in human Caco2 cells incubated for 2 hrs by LC/MS analysis; assay type: ADME, cell-based, Caco-2; details: caco-2, 2 h
# [9] = Stability in CD-1 mouse hepatocytes assessed as compound remaining at 1 uM measured up to 6 hrs by LCMS analysis; assay type: ADME, cell-based, Hepatocyte; details: CD-1, mouse, read-out: Stability
# Sequence of Histone deacetylase 3 (O15379 whole entry): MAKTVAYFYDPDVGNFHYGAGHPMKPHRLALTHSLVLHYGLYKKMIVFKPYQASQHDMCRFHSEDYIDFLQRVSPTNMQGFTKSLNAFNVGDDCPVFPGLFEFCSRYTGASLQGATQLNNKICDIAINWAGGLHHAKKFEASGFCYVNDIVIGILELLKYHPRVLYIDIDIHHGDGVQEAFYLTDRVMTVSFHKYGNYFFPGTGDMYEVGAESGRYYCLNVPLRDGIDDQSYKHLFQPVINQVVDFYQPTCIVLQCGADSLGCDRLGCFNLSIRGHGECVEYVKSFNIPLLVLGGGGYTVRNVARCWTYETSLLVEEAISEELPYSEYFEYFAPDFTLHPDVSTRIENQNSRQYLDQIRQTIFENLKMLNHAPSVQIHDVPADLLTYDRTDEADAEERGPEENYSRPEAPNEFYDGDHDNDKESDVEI
# Sequence of Histone deacetylase 9 (Q9UKV0 whole entry, the tested form may be a part): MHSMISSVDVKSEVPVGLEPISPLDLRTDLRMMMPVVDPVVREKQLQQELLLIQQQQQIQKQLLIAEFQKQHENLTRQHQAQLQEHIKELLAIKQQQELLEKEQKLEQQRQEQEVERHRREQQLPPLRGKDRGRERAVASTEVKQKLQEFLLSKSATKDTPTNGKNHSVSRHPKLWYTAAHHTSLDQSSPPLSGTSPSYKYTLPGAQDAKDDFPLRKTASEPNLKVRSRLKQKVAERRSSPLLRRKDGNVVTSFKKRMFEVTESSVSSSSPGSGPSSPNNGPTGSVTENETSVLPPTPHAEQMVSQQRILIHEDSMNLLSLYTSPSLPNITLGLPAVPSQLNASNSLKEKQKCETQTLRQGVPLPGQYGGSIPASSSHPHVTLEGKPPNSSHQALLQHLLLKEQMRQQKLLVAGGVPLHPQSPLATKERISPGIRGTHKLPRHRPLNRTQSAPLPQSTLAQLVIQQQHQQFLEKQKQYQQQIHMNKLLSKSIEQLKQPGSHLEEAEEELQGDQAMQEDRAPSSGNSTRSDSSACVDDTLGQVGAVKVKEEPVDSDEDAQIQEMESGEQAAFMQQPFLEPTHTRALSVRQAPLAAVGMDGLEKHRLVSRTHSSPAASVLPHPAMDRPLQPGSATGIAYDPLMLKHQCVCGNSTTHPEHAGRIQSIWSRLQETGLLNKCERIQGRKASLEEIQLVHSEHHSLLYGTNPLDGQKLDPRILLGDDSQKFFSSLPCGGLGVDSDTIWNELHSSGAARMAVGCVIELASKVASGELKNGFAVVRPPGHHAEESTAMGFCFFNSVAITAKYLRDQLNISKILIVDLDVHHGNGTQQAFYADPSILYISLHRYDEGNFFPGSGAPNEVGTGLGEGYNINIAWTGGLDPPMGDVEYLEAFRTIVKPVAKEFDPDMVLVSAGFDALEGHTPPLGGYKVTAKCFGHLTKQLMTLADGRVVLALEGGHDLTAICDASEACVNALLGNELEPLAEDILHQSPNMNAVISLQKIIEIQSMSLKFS
# Sequence of Histone deacetylase 5 (Q9UQL6 whole entry, the tested form may be a part): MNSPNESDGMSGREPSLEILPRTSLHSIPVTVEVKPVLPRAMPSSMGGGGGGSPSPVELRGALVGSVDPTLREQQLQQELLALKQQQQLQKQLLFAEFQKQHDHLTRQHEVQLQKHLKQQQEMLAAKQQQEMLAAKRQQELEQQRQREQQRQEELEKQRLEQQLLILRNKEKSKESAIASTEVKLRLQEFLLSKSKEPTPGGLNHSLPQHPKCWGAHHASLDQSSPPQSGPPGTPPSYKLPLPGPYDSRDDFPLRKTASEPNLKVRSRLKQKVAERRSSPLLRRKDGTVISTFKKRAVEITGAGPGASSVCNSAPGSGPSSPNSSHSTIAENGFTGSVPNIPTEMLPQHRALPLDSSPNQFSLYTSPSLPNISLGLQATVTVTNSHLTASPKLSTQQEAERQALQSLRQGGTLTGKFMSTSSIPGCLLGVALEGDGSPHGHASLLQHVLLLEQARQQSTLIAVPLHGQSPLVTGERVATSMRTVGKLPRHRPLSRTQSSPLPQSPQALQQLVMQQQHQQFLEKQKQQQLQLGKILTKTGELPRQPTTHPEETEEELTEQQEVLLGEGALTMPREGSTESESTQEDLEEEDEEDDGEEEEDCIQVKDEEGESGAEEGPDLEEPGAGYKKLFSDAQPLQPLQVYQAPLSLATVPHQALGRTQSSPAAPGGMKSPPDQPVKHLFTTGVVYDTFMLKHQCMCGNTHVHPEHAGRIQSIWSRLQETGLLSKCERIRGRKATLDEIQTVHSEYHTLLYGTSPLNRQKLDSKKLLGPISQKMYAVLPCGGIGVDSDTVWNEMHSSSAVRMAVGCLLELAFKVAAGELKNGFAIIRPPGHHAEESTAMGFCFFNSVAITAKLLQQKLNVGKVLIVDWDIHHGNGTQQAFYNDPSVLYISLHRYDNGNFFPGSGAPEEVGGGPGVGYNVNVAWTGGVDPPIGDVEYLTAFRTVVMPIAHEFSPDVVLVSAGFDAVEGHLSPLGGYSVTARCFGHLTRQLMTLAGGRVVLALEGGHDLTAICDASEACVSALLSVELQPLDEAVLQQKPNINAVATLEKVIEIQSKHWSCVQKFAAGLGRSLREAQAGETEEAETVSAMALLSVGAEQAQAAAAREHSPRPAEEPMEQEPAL
SMILES,IC50 [1] [nM],IC50 (MOLM-13) [nM],Ki [2] [nM],IC50 (MDA-MB-231) [nM],IC50 (Histone deacetylase 3) [nM],IC50 (Histone deacetylase 8) [nM],IC50 (MV4-11) [nM],IC50 [3] [nM],IC50 (Histone deacetylase 11) [nM],IC50 (MDA-MB-468) [nM],IC50 [4] [nM],IC50 (Histone deacetylase 5) [nM],IC50 (Histone deacetylase 9) [nM],CLH [5] [µL/min],Papp [6] [×10⁻⁶ cm/s],PPB [7] [%],Ratio [8],"remaining at 6 h, 1 µM [9] [%]"
CC(C)(C)c1ccc(CN(C(=O)CN(Cc2c(F)c(F)c(F)c(F)c2F)S(C)(=O)=O)c2ccc(C(=O)NO)cc2)cc1,> 25000,2980,1090,> 12500,213,133,1620,27.7,> 1000,> 25000,–,–,–,–,–,–,–,–
CN(CC(=O)N(Cc1ccc(C(C)(C)C)cc1)c1ccc(C(=O)NO)cc1)S(=O)(=O)c1ccc(F)cc1,11800,5460,768,> 25000,492,37.9,3410,55.2,697,> 12500,–,–,–,–,–,–,–,–
CC(=O)N(Cc1ccc(C(C)(C)C)cc1)c1ccc(C(=O)NO)cc1,–,10600,199,> 25000,276,85.4,4240,71.3,> 1000,> 25000,–,–,–,–,–,–,–,–
CC(C)(C)c1ccc(CN(C(=O)CNS(=O)(=O)c2ccc(F)cc2)c2ccc(C(=O)NO)cc2)cc1,10800,5110,293,–,372,28,3330,52.8,665,> 12500,–,–,–,–,–,–,–,–
O=C(NO)c1ccc(N(Cc2ccccc2)C(=O)CN(Cc2c(F)c(F)c(F)c(F)c2F)S(=O)(=O)c2ccc(F)cc2)cc1,–,8050,1860,–,132,90.6,5800,1.49,51.9,–,–,–,–,–,–,–,–,–
Cn1cc(CNCC2CCN(c3ncc(C(=O)NO)cn3)CC2)c2ccccc21 [QUISINOSTAT],–,–,–,–,–,–,–,–,–,–,1.96,5.95,6.7,–,–,–,–,–
CC(C)(C)c1ccc(CN(C(=O)CN(Cc2c(F)c(F)c(F)c(F)c2F)S(=O)(=O)c2ccc(F)cc2)c2ccc(C(=O)NO)cc2)cc1,19200,2100,3600,2620,–,> 1000,1880,–,–,4210,–,–,–,36,0.27,99.6,3.83,20
